For test [1], the target named is T1, Histone deacetylase 8 (Homo sapiens, UniProt Q9BY41).
T1 sequence (Q9BY41 whole entry): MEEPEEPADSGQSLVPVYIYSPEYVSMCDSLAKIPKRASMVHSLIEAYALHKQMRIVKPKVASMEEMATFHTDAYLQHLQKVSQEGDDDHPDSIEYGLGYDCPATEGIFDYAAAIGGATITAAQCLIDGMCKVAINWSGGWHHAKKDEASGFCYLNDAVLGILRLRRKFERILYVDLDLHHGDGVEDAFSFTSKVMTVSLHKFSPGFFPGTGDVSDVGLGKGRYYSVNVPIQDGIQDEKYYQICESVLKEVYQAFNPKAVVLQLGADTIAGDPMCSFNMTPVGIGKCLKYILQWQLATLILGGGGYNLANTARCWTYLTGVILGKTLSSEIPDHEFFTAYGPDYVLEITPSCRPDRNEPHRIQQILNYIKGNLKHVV
Briefly: Inhibition of HDAC8 (unknown origin).

Test [2] deals with Histone deacetylase 1 (Homo sapiens, UniProt Q13547). Briefly: Inhibition of HDAC1 (unknown origin).
Test [3] addresses Histone deacetylase 2 (Homo sapiens, UniProt Q92769). Briefly: Inhibition of HDAC2 (unknown origin).
Test [4] deals with Histone deacetylase 3 (Homo sapiens, UniProt O15379). Briefly: Inhibition of HDAC3 (unknown origin).
Test [5] concerns the target T2, Histone deacetylase 11 (Homo sapiens, UniProt Q96DB2).
T2 sequence (Q96DB2 whole entry): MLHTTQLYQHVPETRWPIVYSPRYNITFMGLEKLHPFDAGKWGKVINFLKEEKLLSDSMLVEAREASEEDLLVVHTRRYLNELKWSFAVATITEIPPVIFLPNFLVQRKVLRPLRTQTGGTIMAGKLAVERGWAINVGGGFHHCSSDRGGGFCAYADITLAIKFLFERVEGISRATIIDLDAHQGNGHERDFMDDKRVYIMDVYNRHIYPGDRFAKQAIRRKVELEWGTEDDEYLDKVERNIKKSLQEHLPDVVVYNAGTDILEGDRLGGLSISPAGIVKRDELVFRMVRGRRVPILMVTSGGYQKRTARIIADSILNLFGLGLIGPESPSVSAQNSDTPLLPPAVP
Briefly: Inhibition of HDAC11 (unknown origin).

The target of test [6] is Tubulin. The test can be described thus: Inhibition of tubulin polymerization (unknown origin) measured after 1 min by fluorescence assay. Type of test: protein-complex assay, Homo sapiens.
Test [7] concerns HeLa. The test can be described thus: Antiproliferative activity against human HeLa cells assessed as cell growth inhibition after 72 hrs by SRB assay. Type of test: functional, cell-based.
In test [8] the test system is HepG2. The test can be described thus: Antiproliferative activity against human HepG2 cells assessed as cell growth inhibition after 72 hrs by SRB assay. To be noted: HepG2, 72 h. Type of test: functional, cell-based.
Test [9] deals with Histone deacetylase. The test can be described thus: Inhibition of HDAC (unknown origin). In kind it is protein assay, Homo sapiens.
Test [10] concerns MGC-803. The test can be described thus: Antiproliferative activity against human MGC-803 cells assessed as cell growth inhibition after 72 hrs by SRB assay. In kind it is functional, cell-based. To be noted: MGC-803, 72 h.
The test system of test [11] is MCF7. The test can be described thus: Antiproliferative activity against human MCF7 cells assessed as cell growth inhibition after 72 hrs by SRB assay. To be noted: MCF7, 72 h. Type of test: functional, cell-based.
Test [12] deals with U-937. The test can be described thus: Antiproliferative activity against human U-937 cells assessed as cell growth inhibition after 72 hrs by CCK8 assay. In kind it is functional, cell-based. To be noted: U-937, 72 h.
Test [13] deals with A549. The test can be described thus: Antiproliferative activity against human A549 cells assessed as cell growth inhibition after 72 hrs by SRB assay. In kind it is functional, cell-based. To be noted: A549, 72 h.
The test system of test [14] is MGC-803. Briefly: Induction of cell cycle arrest in human MGC-803 cells assessed as accumulation at S phase at 2 nM incubated for 24 hrs by propidium iodide staining based flow cytometry (Rvb =31.51 %). In kind it is functional.
Test [15] deals with MGC-803. Briefly: Induction of cell cycle arrest in human MGC-803 cells assessed as accumulation at G1 phase at 2 nM incubated for 24 hrs by propidium iodide staining based flow cytometry (Rvb =39.64 %). Type of test: functional.
The test system of test [16] is MGC-803. Briefly: Induction of apoptosis in human MGC-803 cells assessed as early apoptotic cells at 2 nM measured after 48 hrs by Annexin V-APC/PI double staining based flow cytometry assay (reference value: 2.42 %). Type of test: functional, cell-based.
For test [17], the system named is MGC-803. Briefly: Induction of apoptosis in human MGC-803 cells assessed as late apoptotic cells at 2 nM measured after 48 hrs by Annexin V-APC/PI double staining based flow cytometry assay (reference value: 3.62 %). Type of test: functional, cell-based.
Test [18] deals with MGC-803. The test can be described thus: Induction of apoptosis in human MGC-803 cells assessed as viable cells at 2 nM measured after 48 hrs by Annexin V-APC/PI double staining based flow cytometry assay (Rvb =93.5 %). Type of test: functional, cell-based.
The subject of test [19] is MGC-803. The test can be described thus: Induction of cell cycle arrest in human MGC-803 cells assessed as accumulation at G2/M phase at 2 nM incubated for 24 hrs by propidium iodide staining based flow cytometry (reference value: 28.59 %). Type of test: functional.
Test [20] deals with MGC-803. Briefly: Induction of apoptosis in human MGC-803 cells assessed as necrotic cells at 2 nM measured after 48 hrs by Annexin V-APC/PI double staining based flow cytometry assay (reference value: 0.44%). Type of test: functional, cell-based.

The source made the active and inactive calls. The rule behind the calls is not given here.

Sequence of Histone deacetylase 1 (Q13547 whole entry): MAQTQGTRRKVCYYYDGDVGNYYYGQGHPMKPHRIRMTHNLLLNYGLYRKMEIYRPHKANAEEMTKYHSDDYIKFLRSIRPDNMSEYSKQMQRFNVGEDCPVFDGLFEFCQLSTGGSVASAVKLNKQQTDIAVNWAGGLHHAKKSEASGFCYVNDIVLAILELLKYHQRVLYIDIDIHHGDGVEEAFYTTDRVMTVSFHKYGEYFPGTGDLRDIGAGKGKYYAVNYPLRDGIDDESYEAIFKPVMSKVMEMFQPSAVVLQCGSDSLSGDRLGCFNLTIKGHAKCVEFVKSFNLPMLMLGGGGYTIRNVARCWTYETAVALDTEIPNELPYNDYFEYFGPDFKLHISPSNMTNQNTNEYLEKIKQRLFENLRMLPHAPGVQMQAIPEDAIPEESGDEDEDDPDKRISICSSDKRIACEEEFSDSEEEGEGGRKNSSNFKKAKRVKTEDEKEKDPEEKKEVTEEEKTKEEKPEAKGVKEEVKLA
Sequence of Histone deacetylase 3 (O15379 whole entry): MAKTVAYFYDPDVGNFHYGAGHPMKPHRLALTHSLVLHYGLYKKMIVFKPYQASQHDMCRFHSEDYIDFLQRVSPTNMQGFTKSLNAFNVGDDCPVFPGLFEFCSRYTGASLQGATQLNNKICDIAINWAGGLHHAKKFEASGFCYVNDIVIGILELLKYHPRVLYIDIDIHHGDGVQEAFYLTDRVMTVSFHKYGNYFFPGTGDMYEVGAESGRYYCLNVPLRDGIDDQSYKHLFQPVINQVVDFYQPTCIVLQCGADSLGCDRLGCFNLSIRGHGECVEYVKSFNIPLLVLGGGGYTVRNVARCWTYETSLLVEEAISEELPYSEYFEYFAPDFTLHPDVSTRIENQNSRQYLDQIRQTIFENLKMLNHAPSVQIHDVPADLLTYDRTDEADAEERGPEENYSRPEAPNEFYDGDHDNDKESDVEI
Sequence of Histone deacetylase 2 (Q92769 whole entry): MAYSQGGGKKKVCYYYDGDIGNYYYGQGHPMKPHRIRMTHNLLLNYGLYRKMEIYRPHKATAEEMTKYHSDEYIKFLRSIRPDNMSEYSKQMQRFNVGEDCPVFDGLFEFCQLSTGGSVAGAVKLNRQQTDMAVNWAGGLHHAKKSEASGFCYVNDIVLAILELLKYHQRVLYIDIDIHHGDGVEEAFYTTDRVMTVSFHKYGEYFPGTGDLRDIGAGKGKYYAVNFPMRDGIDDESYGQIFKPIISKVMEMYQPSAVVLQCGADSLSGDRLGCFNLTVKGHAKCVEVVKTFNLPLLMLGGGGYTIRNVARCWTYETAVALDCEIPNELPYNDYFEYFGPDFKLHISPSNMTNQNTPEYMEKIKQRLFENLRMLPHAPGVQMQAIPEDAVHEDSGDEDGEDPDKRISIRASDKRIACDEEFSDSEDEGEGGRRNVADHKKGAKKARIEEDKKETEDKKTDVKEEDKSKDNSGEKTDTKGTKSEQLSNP

For `O=C(NCC1(c2nc(-c3ccccc3)cs2)CCOCC1)c1cccc(-c2noc(C(F)(F)F)n2)c1`, the IC50 entry in [1], in test [2], in test [3], in test [4] and in [5] was “Not Active” each time.
For the compound `COc1ccc(C(=O)c2cc(OC)c(OC)c(OC)c2)cc1OCC(=O)NO`, the IC50 worked out at 19.6 µM in test [6] (read-out: IC50); 0.753 µM in test [7]; 0.521 µM in [8]; 0.25 µM in test [9]; 0.105 µM in [10]; 0.189 µM in test [11]. Also, the values for the concentration for half-maximal inhibition (IC50) in test [12] and in [13] were 1.13 µM and over 5 µM, respectively.
For `COc1ccc(/C=C\c2cc(OC)c(OC)c(OC)c2)cc1O` [COMBRETASTATIN A4], the IC50 in test [7] worked out at 0.009 µM; in test [10] it was 0.002 µM; in test [12], 0.001 µM. Moreover, the Activity in [14] is 31.58%; in [15], 40.88%; in test [19] it was “Dose-Dependent Effect”; in test [19] (record 2), 28.25%. The result in test [16], in [17], in test [18] and in test [20] was Active.
In the case of `COc1ccc(/C=C\c2cc(OC)c(OC)c(OC)c2)cc1OCc1ccc(C(=O)NO)cc1`, the half-maximal inhibitory concentration (IC50) in [6] (read-out: IC50) amounted to 8.6 µM; in test [7], 0.44 µM; in test [8], 1.33 µM; in test [9] it was 0.39 µM; in test [10] it was 0.182 µM; in [11], 0.817 µM. The IC50 turned out to be 0.389 µM in test [12] and 0.44 µM in test [13].
Consider `COc1ccc(/C=C\c2cc(OC)c(OC)c(OC)c2)cc1OCCCC(=O)NO`, for which the 50% inhibitory concentration (IC50) in test [6] (read-out: IC50) is 5.2 µM; in test [7], 0.031 µM; in test [8], 0.081 µM; in test [9], 1.4 µM; in test [10] it was 0.063 µM; in test [11], 0.982 µM. Further, the figures for the IC50 in [12] and in test [13] were 2.54 µM and 0.371 µM, respectively.
For `O=C(CCCCCCC(=O)Nc1ccccc1)NO` [VORINOSTAT], the IC50 result in test [6] was “Not Active”.
For the compound `COc1ccc(C(=O)c2cc(OC)c(OC)c(OC)c2)cc1Oc1ccc(C(=O)NO)cc1`, the half-maximal inhibitory concentration (IC50) in test [7], in test [8], in test [10], in test [11], in test [12] and in test [13] was over 5 µM in each case.
For `COc1ccc(C(=O)c2cc(OC)c(OC)c(OC)c2)cc1Oc1ccc(C(=O)NO)cn1`, the IC50 in [7], in test [8], in [10], in test [11], in [12] and in [13] was over 5 µM in each case.
Take `COc1ccc(/C=C\c2cc(OC)c(OC)c(OC)c2)cc1Oc1ccc(C(=O)Nc2ccccc2N)cn1`: the IC50 is over 5 µM in test [7]; 4.92 µM in test [8]; 1.29 µM in [10]; 2.61 µM in test [11]; 3.22 µM in test [12]; over 5 µM in test [13].
On to `COc1ccc(/C=C\c2cc(OC)c(OC)c(OC)c2)cc1OCCCC(=O)Nc1ccccc1N`, for which the IC50 in [7] is 0.74 µM; in [8] it was over 5 µM; in test [10], over 5 µM; in test [11] it was 4.28 µM; in test [12], 5.78 µM; in test [13], 3.24 µM.
With `COc1ccc(/C=C\c2cc(OC)c(OC)c(OC)c2)cc1OCC(=O)Nc1ccccc1N`, the IC50 in test [7], in test [8], in [10], in test [11], in [12] and in test [13] was over 5 µM in each case.

Values taken from ChEMBL document CHEMBL4828751, “Discovery of novel tubulin/HDAC dual-targeting inhibitors with strong antitumor and antiangiogenic potency” (Eur J Med Chem, 2021).
